Data published in patent US9259006B2, “Antimicrobial compositions and methods of use thereof” (priority 2008, dated 2016).
Read-outs that look alike come from different tables or passages of the source.

Tests used:
[1] = system: E. Coli (ATCC 43888); type: cell-based; conditions: inoculum 6.87-log, about 33° F.
[2] = Hypochlorous acid stability and shelf life, DPD assay (Table 10, FIG. 1); type: physicochemical
[3] = Spinach leaf 25 grams, 180 min.

Row | Compound | Antimicrobial activity (log reduction) of single components ([1]; Spinach leaf 25 grams, 2 min.) | Antimicrobial activity (log reduction) of single components ([1]; Spinach leaf 25 grams, 30 min.) | Antimicrobial activity (log reduction) of single components [1, 3] | Antimicrobial activity (log reduction) of single components ([1]; Strawberry 25 grams, 2 min.) | Antimicrobial activity (log reduction) of single components ([1]; Strawberry 25 grams, 30 min.) | Antimicrobial activity (log reduction) of single components ([1]; Strawberry 25 grams, 180 min.) | level of hypochlorous acid in solution ([2]; in the absence of diol at pH 7) | level of hypochlorous acid in solution ([2]; in the presence of diol at pH 4, at about 4 hours)
1 | BrBr [Bromine (0.08 wgt. %), Bromine] | 2.11 log | 3.28 log | 4.44 log | 2.32 log | 3.32 log | 4.89 log | – | –
2 | O=[O+][O-] [Ozone (0.001 wgt. %), Ozone] | 2.34 log | 2.58 log | 3.63 log | 2.89 log | 3.12 log | 4.12 log | – | –
3 | OCl [hypochlorous acid] | – | – | – | – | – | – | 100% | 0%
4 | Octyl Phenol Ethoxylate [Octyl Phenol Ethoxylate (0.5 wgt. %)] | 1.15 log | 2.47 log | 3.11 log | 1.05 log | 2.78 log | 3.9 log | – | –
